According to patent US20070004039A1, “Immortalized hepatocytes” (Multicell Technologies, Inc., priority 2003, published 2007):
Read-outs that look alike come from different tables or passages of the source.

Tests used:
[1] = test system: Fa2N-4 cells and primary human hepatocytes
albumin = test: Effect of dexamethasone on albumin secretion by Fa2N-4 cells (ELISA); format: cell-based, human; conditions: Fa2N-4 (passage 32); dexamethasone 1.0 μM; 48 hrs
CYP3A4 [2] = conditions: human
CYP1A2 [3] = test: CYP1A2 activity induction in Fa2N-4 cells (phenacetin, LC/MS/MS); format: cell-based, human
CYP2B6 = conditions: cited from earlier work
MDR1 (P-glycoprotein) = test: Invader assay MDR1 mRNA induction in Fa2N-4 cells; format: cell-based, human; conditions: 48 hours
CYP3A4 [4] = conditions: human; remark: listed apart in the source
[5] = test system: Fa2N-4 cells and primary human hepatocytes; test: Toxicity by LDH release and resazurin reduction, Fa2N-4 cells compared with primary human hepatocytes; conditions: Same or Different toxicity response in the two cell types
UGT1A = test: Invader assay UGT1A mRNA induction in Fa2N-4 cells; format: cell-based, human; conditions: 48 hours
CYP3A4 [6] = test system: CYP3A4
CYP1A2 [7] = test system: CYP1A2
CYP1A2 [8] = conditions: cited from earlier work
Fa2N-4 cells = test: α-GST release toxicity test in Fa2N-4 cells (FIG. 22); conditions: 72-hour exposure, up to 100 μM
[9] = activity based on 7-ethoxy-4-trifluoromethylcoumarin O-dealkylation
[10] = activity based on S-mephenytoin N-demethylation

O=C1NC(=O)C(c2ccccc2)(c2ccccc2)N1 [Phenytoin]
Cellular Response (Fa2N-4 cells compared with primary human hepatocytes) [1]: Same | Non-toxic Compound / Toxic Compound [1]: Phenytoin

C[C@@H]1C[C@H]2[C@@H]3CCC4=CC(=O)C=C[C@]4(C)[C@@]3(F)[C@@H](O)C[C@]2(C)[C@@]1(O)C(=O)CO [Dexamethasone]
Albumin (albumin): 100.0 µg/mL

Clc1ccccc1C(c1ccccc1)(c1ccccc1)n1ccnc1 [clotrimazole]
CYP3A4 activity induction (FIG. 20) (CYP3A4 [2]): CYP3A4 induction is masked by its inhibitory effect

CC1(COc2ccc(CC3SC(=O)NC3=O)cc2)CCCCC1 (stereo not shown) [Ciglitazone]
Cellular Response (Fa2N-4 cells compared with primary human hepatocytes) [1]: Same | Non-toxic Compound / Toxic Compound [1]: Ciglitazone

Cc1c(OCC(F)(F)F)ccnc1C[S+]([O-])c1nc2ccccc2[nH]1 (stereo not shown) [Lansoprazole]
Cellular Response (Fa2N-4 cells compared with primary human hepatocytes) [1]: Same | Non-toxic Compound / Toxic Compound [1]: Lansoprazole

NC(=O)OCC(COC(N)=O)c1ccccc1 [Felbamate]
Cellular Response (Fa2N-4 cells compared with primary human hepatocytes) [1]: Same | Non-toxic Compound / Toxic Compound [1]: Felbamate

CN(Cc1cnc2nc(N)nc(N)c2n1)c1ccc(C(=O)N[C@@H](CCC(=O)O)C(=O)O)cc1 [Methotrexate]
Cellular Response (Fa2N-4 cells compared with primary human hepatocytes) [1]: Same | Non-toxic Compound / Toxic Compound [1]: Methotrexate

CC1=CC(=O)c2ccccc2C1=O [Menadione]
Cellular Response (Fa2N-4 cells compared with primary human hepatocytes) [1]: Different | Non-toxic Compound / Toxic Compound [1]: Toxic | sensitivity of Fa2N-4 cells relative to primary hepatocytes [1]: less sensitive

O=C1Nc2ccc(Cl)cc2[C@@](C#CC2CC2)(C(F)(F)F)O1 [Efavirenz]
Cellular Response (Fa2N-4 cells compared with primary human hepatocytes) [1]: Same | Non-toxic Compound / Toxic Compound [1]: Efavirenz

NC(=O)N1c2ccccc2C=Cc2ccccc21 [Carbamazepine]
Cellular Response (Fa2N-4 cells compared with primary human hepatocytes) [1]: Same | Non-toxic Compound / Toxic Compound [1]: Carbamazepine

c1ccc2c(c1)cc1ccc3cccc4ccc2c1c34 [Benzo[a]pyrene]
Cellular Response (Fa2N-4 cells compared with primary human hepatocytes) [1]: Different | Non-toxic Compound / Toxic Compound [1]: Toxic | sensitivity of Fa2N-4 cells relative to primary hepatocytes [1]: more sensitive than primary hepatocytes

COc1ccc2[nH]c([S+]([O-])Cc3ncc(C)c(OC)c3C)nc2c1 (stereo not shown) [Omeprazole]
Cellular Response (Fa2N-4 cells compared with primary human hepatocytes) [1]: Same | Non-toxic Compound / Toxic Compound [1]: Omeprazole | induction of CYP1A2 activity (CYP1A2 [3]; Fa2N-4, 6-well plates, 100 μM omeprazole): marked induction | CYP1A2 activity induction over control (CYP1A2 [3]; Fa2N-4, 6-, 12-, 24- and 96-well format, all cases): at least 9 fold | Fa2N-4 Average induction, CYP1A2 (CYP1A2 [3]; Fa2N-4 cells): 20 fold | Fa2N-4 induction (range), CYP1A2 (CYP1A2 [3]; Fa2N-4 cells): (9.3-29) fold

CCCN(CCC)S(=O)(=O)c1ccc(C(=O)O)cc1 [Probenicid]
Cellular Response (Fa2N-4 cells compared with primary human hepatocytes) [1]: Same | Non-toxic Compound / Toxic Compound [1]: Probenicid

CO[C@H]1/C=C/O[C@@]2(C)Oc3c(C)c(O)c4c(O)c(c(/C=N/N5CCN(C)CC5)c(O)c4c3C2=O)NC(=O)/C(C)=C\C=C\[C@H](C)[C@H](O)[C@@H](C)[C@@H](O)[C@@H](C)[C@H](OC(C)=O)[C@@H]1C [Rifampin]
Human hepatocytes Average induction, CYP2B6 (CYP2B6; [9]): 4.1 fold | Human hepatocytes Median induction, CYP2B6 (CYP2B6; [9]): 2.9 fold | Human hepatocytes induction (range), CYP2B6 (CYP2B6; [9]): ≤ 14 fold | Human hepatocytes Average induction, CYP2B6 (CYP2B6; [10]): 13 fold | Human hepatocytes Median induction, CYP2B6 (CYP2B6; [10]): 8.5 fold | Human hepatocytes induction (range), CYP2B6 (CYP2B6; [10]): ≤ 71 fold | Cellular Response (Fa2N-4 cells compared with primary human hepatocytes) [1]: Same | MDR1 (P-glycoprotein) mRNA induction (MDR1 (P-glycoprotein)): 3 fold

CO[C@H]1C[C@H](O[C@H]2[C@H](C)[C@@H](O[C@@H]3O[C@H](C)C[C@H](N(C)C)[C@H]3OC(C)=O)[C@@H](C)C[C@@]3(CO3)C(=O)[C@H](C)[C@@H](OC(C)=O)[C@@H](C)[C@@H](C)OC(=O)[C@@H]2C)O[C@@H](C)[C@@H]1OC(C)=O [Troleandomycin]
Cellular Response (Fa2N-4 cells compared with primary human hepatocytes) [1]: Same | Non-toxic Compound / Toxic Compound [1]: Troleandomycin

CCC1(c2ccccc2)C(=O)NC(=O)NC1=O [Phenobarbital]
production of the 6-β testosterone metabolite (CYP3A4 [4]): weaker CYP3A4 inducers | Cellular Response (Fa2N-4 cells compared with primary human hepatocytes) [5]: Same

Cc1c(C)c2c(c(C)c1O)CCC(C)(COc1ccc(CC3SC(=O)NC3=O)cc1)O2 (stereo not shown) [Troglitazone]
Cellular Response (Fa2N-4 cells compared with primary human hepatocytes) [1]: Different | Non-toxic Compound / Toxic Compound [1]: Toxic | sensitivity of Fa2N-4 cells relative to primary hepatocytes [1]: more sensitive than primary hepatocytes

C=C(C)[C@H]1Cc2c(ccc3c2O[C@@H]2COc4cc(OC)c(OC)cc4[C@@H]2C3=O)O1 [Rotenone]
Cellular Response (Fa2N-4 cells compared with primary human hepatocytes) [5]: Same

O=c1cc(-c2ccccc2)oc2ccc3ccccc3c12 [BNF, β-naphthoflavone]
UGT1A mRNA induction (UGT1A): 2 fold | expression of CYP3A4 protein (immunoblot) (CYP3A4 [6]): does not induce CYP3A4 protein expression | Fa2N-4 cells Fold-increase, CYP1A2 (CYP1A2 [7]): 1.5 fold | Human hepatocytes Average induction, CYP1A2 (CYP1A2 [8]): 13 fold | Human hepatocytes Median induction, CYP1A2 (CYP1A2 [8]): 8.4 fold | Human hepatocytes induction (range), CYP1A2 (CYP1A2 [8]): (2-56) fold | Primary cells Fold-increase, CYP1A2 (CYP1A2 [8]; hepatocytes): 13 fold

Cc1ccc2cc3c(ccc4ccccc43)c3c2c1CC3 [3-Methylcholanthrene]
release of α-GST into the medium (Fa2N-4 cells): caused a loss of membrane integrity | Cellular Response (Fa2N-4 cells compared with primary human hepatocytes) [5]: Same
